Laboratory results: publication PMC4090677 (Frontiers in Immunology, 2014)

Experiment: physchem
Settings: pH 7.6, aqueous with cosolvent or surfactant or cyclodextrin, kinetic from dmso stock

- solubility: ≤ 50 µM
Compound: COc1ccccc1N1CCN(C(=O)c2ccc3c(c2)NC(=O)C(CSCc2ccccc2C)N3)CC1 (stereo not shown) [Compound 4]
